In patent US7601722B2, “Aryl sulfamide derivatives and methods of their use” (Wyeth, priority 2006, dated 2009):
Structures can show the parent of a compound that is named as a salt.

Key:
[1] = Rat Liver Microsomal Stability Assay; format: in vitro ADME; details: pH 7.4; rat liver microsomes, 37° C., NADPH, Time 0 and Time 15 min; read-out: RLM stability t1/2
Procedure: Rat Liver Microsomal Stability Assay:
DMSO stock solutions of test compounds were prepared at 0.5 mM concentration. Diluted solutions of test compounds were prepared by adding 50 uL of each DMSO stock solution to 200 uL of acetonitrile to make 0.1 mM solutions in 20% DMSO/80% acetonitrile. Rat liver microsomal solution was prepared by adding 1.582 mL of concentrated rat liver microsomes (20 mg/mL protein concentration) to 48.291 mL of pre-warmed (to 37° C.) 0.1M potassium phosphate buffer (pH 7.4) containing 127 uL of 0.5 M EDTA to make a 0.6329 mg/mL (protein) microsomal solution. 11.2 uL of each test compound diluted solution was each added directly to 885 uL of rat liver microsomal solution (allowing direct binding of drugs to microsomal proteins and lipids to minimize precipitation and non-specific binding to the plasticware). This solution was mixed and 180 uL was transferred to “Time 0” and “Time 15 min” plates (each in duplicate wells). For the Time 15 min plate, NADPH regenerating agent (45 uL) was added to each well to initiate the reaction, the plate was incubated at 37° C. for 15 min, followed by quenching of the reaction by adding 450 uL of cold acetonitrile to each well. For the Time 0 plate, 450 uL of cold acetonitrile was added to each well, followed by addition of NADPH regenerating agent (45 uL) and no incubation. All of the plates were centrifuged at 3000 rpm for 15 min and the supernatants were transferred to other well plates for analysis by LC-MS.

[2] = target: Dopamine Transporter (hDAT) (Homo sapiens, UniProt Q01959); test: Dopamine Transporter (hDAT) Membrane Binding Assay
Sequence of Dopamine Transporter (hDAT) (Q01959 whole entry): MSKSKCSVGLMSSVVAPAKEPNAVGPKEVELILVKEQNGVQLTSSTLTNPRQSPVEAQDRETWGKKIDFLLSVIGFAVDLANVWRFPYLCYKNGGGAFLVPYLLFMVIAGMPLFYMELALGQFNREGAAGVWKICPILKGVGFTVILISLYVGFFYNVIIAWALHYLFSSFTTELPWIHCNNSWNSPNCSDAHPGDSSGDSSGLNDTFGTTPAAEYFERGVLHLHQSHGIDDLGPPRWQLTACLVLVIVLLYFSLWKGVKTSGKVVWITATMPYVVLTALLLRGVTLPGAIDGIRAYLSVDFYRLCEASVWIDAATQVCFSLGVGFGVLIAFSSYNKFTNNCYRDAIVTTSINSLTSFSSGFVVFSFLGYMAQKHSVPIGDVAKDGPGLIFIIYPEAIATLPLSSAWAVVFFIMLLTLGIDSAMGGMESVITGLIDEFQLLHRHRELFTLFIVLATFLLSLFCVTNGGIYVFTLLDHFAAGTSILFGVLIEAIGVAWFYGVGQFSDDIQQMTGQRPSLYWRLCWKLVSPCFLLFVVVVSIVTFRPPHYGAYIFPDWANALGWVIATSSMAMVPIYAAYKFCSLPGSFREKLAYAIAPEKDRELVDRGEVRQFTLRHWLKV

[3] = target: T1, Cloned Human NE Transporters (Homo sapiens, UniProt P23975); test: hNET Assay Procedure Protocol A: inhibition of [3H] NE uptake (MDCK cells) (hNET uptake); format: cell-based; details: MDCK cells expressing hNET, [3H] NE 16 nM
T1 construct: expressed in transfected cells; host or cells: MDCK
T1 sequence (P23975 whole entry): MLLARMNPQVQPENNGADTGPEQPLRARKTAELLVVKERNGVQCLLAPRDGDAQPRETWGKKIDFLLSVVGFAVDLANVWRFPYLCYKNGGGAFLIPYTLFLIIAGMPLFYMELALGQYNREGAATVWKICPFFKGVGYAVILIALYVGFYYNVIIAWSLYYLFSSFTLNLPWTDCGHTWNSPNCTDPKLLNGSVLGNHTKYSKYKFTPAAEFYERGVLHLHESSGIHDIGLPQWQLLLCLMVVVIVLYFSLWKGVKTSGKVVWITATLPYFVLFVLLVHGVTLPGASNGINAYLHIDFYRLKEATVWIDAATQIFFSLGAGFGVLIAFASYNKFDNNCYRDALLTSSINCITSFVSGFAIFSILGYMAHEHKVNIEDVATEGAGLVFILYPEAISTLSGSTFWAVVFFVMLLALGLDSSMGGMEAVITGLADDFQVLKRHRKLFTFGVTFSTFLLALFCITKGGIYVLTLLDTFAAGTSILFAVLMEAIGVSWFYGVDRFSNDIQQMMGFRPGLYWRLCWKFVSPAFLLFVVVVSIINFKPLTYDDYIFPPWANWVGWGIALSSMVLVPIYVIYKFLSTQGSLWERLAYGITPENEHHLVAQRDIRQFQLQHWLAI
Procedure: hNET Assay Procedure Protocol A: Inhibition of [^3H] NE Uptake into Cloned Human NE Transporters (MDCK Cells) (“hNET uptake”)
[^3H] […] Cells were seeded at 300,000/T75 flask, and split twice weekly.
All uptake experiments were performed in 96-well plates (Falcon Optilux, cat #353947) in a total volume of 250 μl/well. MDCK cells were plated at 50,000 cells/well. […] 25 μl of each test compound was subsequently added to plates in triplicate and incubated at 37° C. for 5 minutes. All test compounds were dissolved in 100% DMSO and diluted in 4% DMSO/H2O, and assayed using a 7-point dose response curve (1 nM-10 μM). Next, 25 μl of [^3H] NE (74.9 Ci/mmol, Perkin Elmer, Boston, Mass.) was added to all wells and incubated at 37° C. for an additional 5 minutes. Non-specific uptake was defined by 20 μM desipramine. The final concentrations of [^3H] NE was 16 nM, respectively. The reaction was terminated by aspiration and washed with ice cold 50 mM Tris (pH 7.4). […] 100 μl of Microscint-20 were added to each well (Packard, Perkin Elmer, Boston, Mass.), and the plates were counted using a TopCount (Perkin Elmer, Downer's Grove, Ill.) liquid scintillation counter. […]
IC50 values were calculated using a Prism® nonlinear regression program where % inhibition is plotted versus concentration of inhibitor.

[4] = target: hNET (Homo sapiens, UniProt P23975); test: hNET binding according to Mahaney et al.; details: hNET binding per footnote, printed in the NE uptake column
Sequence of hNET (P23975 whole entry): as above

Compound | half-life at 1 µM [1] [min] | IC50 [2] [µM] | further results
O=S1(=O)N(CC[C@H]2CNCCO2)c2ccccc2N1c1ccccc1F [Example 148, 1-(2-fluorophenyl)-3-{2-[(2S)-morpholin-2-yl]ethyl}-1,3-dihydro-2,1,3-benzothiadiazole2,2-dioxide] | 4 | 1.4 | –
O=S1(=O)N(CCCCN2CCOCC2)c2ccccc2N1c1ccc(Cl)cc1 [Example 180, 1-(4-chlorophenyl)-3-(4-morpholin-4-ylbutyl)-1,3-dihydro-2,1,3-benzothiadiazole2,2-dioxide] | – | – | IC50 [3]: 1.76 µM
O=S1(=O)N(CC[C@@H]2CNCCO2)c2ccccc2N1c1ccc(F)cc1 [Example 139, 1-(4-fluorophenyl)-3-{2-[(2R)-morpholin-2-yl]ethyl}-1,3-dihydro-2,1,3-benzothiadiazole2,2-dioxide] | 10 | – | –
COc1cccc(N2c3ccccc3N(CC[C@H]3CNCCO3)S2(=O)=O)c1 [Example 146, 1-(3-methoxyphenyl)-3-{2-[(2S)-morpholin-2-yl]ethyl}-1,3-dihydro-2,1,3-benzothiadiazole2,2-dioxide] | 5 | – | –
O=S1(=O)N(CCC2CNCCO2)c2ccccc2N1c1ccc(F)cc1 (stereo not shown) [Example 137, 1-(4-fluorophenyl)-3-(2-morpholin-2-ylethyl)-1,3-dihydro-2,1,3-benzothiadiazole 2,2-dioxide] | 9 | – | –
O=S1(=O)N(CC[C@@H]2CNCCO2)c2ccccc2N1c1ccccc1F [Example 149, 1-(2-fluorophenyl)-3-{2-[(2R)-morpholin-2-yl]ethyl}-1,3-dihydro-2,1,3-benzothiadiazole2,2-dioxide] | 5 | 2.19 | –
O=S1(=O)N(CC[C@H]2CNCCO2)c2ccccc2N1c1ccccc1 [Example 135, 1-{2-[(2S)-morpholin-2-yl]ethyl}-3-phenyl-1,3-dihydro-2,1,3-benzothiadiazole2,2-dioxide] | 5 | 0.479 | –
O=S1(=O)N(CC[C@@H]2CNCCO2)c2ccccc2N1c1ccccc1 [Example 136, 1-{2-[(2R)-morpholin-2-yl]ethyl}-3-phenyl-1,3-dihydro-2,1,3-benzothiadiazole2,2-dioxide] | 3 | 0.598 | –
O=S1(=O)N(CC[C@H]2CNCCO2)c2ccccc2N1c1c(F)cccc1F [Example 150, 1-(2,6-difluorophenyl)-3-{2-[(2S)-morpholin-2-yl]ethyl}-1,3-dihydro-2,1,3-benzothiadiazole2,2-dioxide] | 3 | – | –
CN(C)CCOCCN1c2ccccc2N(c2ccc(F)cc2F)S1(=O)=O [Example 170, 2-{2-[3-(2,4-difluorophenyl)-2,2-dioxido-2,1,3-benzothiadiazol-1(3H)-yl]ethoxy}-N,N-dimethylethanamine hydrochloride] | – | – | IC50 [4]: 0.207 µM
NCC1CCN(CCN2c3ccccc3N(c3ccccc3)S2(=O)=O)C1 (stereo not shown) [Example 105, 1-{1-[2-(2,2-dioxido-3-phenyl-2,1,3-benzothiadiazol-1(3H)-yl)ethyl]pyrrolidin-3-yl}methanamine dihydrochloride] | – | – | IC50 [4]: 0.289 µM
O=S1(=O)N(CC[C@H]2CNCCO2)c2ccccc2N1c1ccc(F)cc1F [Example 141, 1-(2,4-difluorophenyl)-3-{2-[(2S)-morpholin-2-yl]ethyl}-1,3-dihydro-2,1,3-benzothiadiazole2,2-dioxide] | 2 | – | –
